Like-named read-outs stand apart in the source and are kept apart here.
System: Panc 05.04
Assay: Cell viability (SRB), Panc 05.04
Format: cell-based
Conditions: Homo sapiens, Panc 05.04, 72 h
Procedure: SW48 Parental, SW48 G12D, Panc-1, HPAF-II, Panc 02.03 and Panc 05.04 cell lines were seeded overnight at 5000 cells per well in a 96 well plate in recommended media (ATCC). Compounds were added the following day and viability was measured at 72h using the sulforhodamine B (SRB) colorimetric assay as follows. Cells were fixed by replacing media with 1% v/v Trichloroacetic Acid (TCA) (Sigma-Aldrich) at 4°C and incubated for 1h also at 4°C. Wells were washed thoroughly with copious amounts of deionised water before staining with Sulforhodamine B (SRB) (Sigma-Aldrich) solution (0.057% w/v in 1% v/v Acetic Acid (VWR)) for 30 min. Stain was aspirated and wells washed with several changes of 1% v/v Acetic Acid until unbound stain was removed, before air-drying. Bound stain was solubilized with 100μl / well 10mM Tris (pH 8.0) (Trizma Base (121.1) Sigma-Aldrich) with agitation for 10 min. Fluorescence intensity was recorded at Ex540nm / Em590nm using a BMG Pherastar Plus plate reader ([Vichai and Kirtikara, 2006]).
Pancreatic organoids were extracted and cultured as detailed above ([Boj et al., 2015]). In brief, pancreatic organoids were seeded at 600 cells per well in a 96 well plate and allowed to grow for 7 days with media replenishment on the 3rd day. Full-grown organoids were then treated with compounds for 72h and viability determined using CellTitre Glo 3D assay (Promega). For viability assays with c-MET siRNA, cells were reverse transfected in a 6 cm dish using Dharmafect 1 (GE Dharmacon) per manufacturer’s instructions. On the following day, cells were trypsinised and plated onto 96 well plates or 6 well plates. The 96 well plates were treated with a dose range of compounds or DMSO, and viability was determined via SRB colorimetric assay. […]
Cells were reverse-transfected with 50nM (SW48 parental, SW48 KRAS G12D and Panc-1) or 25nM (HeLa Flp-In T-REx parental cells) siRNA using Dharmafect (GE Dharmacon) as manufacturer’s recommendations. […] Viability was assessed after 72 hrs, with the SRB colorimetric assay. Knockdown efficiencies were determined by Western blot or RT-qPCR. […]

Structure (SMILES): O=C(O)CCc1ccc(-c2ccc(Br)cc2)n1-c1ccccc1C(F)(F)F [Poloppin]
- EC50 (read-out: EC50, % survival, Panc 05.04, All Stars control siRNA, 72 h): 23.8 ± 1.08 µM
- EC50 (read-out: EC50, % survival, Panc 05.04, siMET, 72 h): 11.6 ± 1.07 µM
